pIC50: −log10 of the molar value.

The first assay is described as follows: Antagonist activity at P2Y1 receptor in platelet-enriched human plasma assessed as 10 uM ADP-induced platelet aggregation preincubated for 1 min followed by ADP induction measured at 5 mins by aggregometric analysis.
Broadly, the pIC50 is the IC50 on a negative log10 scale, so that one unit is a factor of ten. `CC(C)(C)CN1CCC2(CC1)CN(c1ccccc1NC(=O)Nc1ccc(OC(F)(F)F)cc1)c1ncccc12`: the pIC50 was under 4.40. On the same count and under the same terms, the result for `CC(C)(C)CN1CCC2(CC1)CN(c1ccccc1NC(=O)Nc1ccc(OC(F)(F)F)cc1)c1ccncc12` reads under 4.40.

`CC(C)(C)CN1CCC2(CC1)CCN(c1ccccc1NC(=O)Nc1ccc(OC(F)(F)F)cc1)c1ccccc12`: the pIC50 was 5.20. For `COC(=O)N1CCC2(CC1)CN(c1ccccc1NC(=O)Nc1ccc(OC(F)(F)F)cc1)c1ccccc12`, the pIC50 is 4.27.

For `CC(C)CN1CCC2(CC1)CN(c1ccccc1NC(=O)Nc1ccc(OC(F)(F)F)cc1)c1ccccc12`, the pIC50 was 5.06. As for `CC(C)N1CCC2(CC1)CN(c1ccccc1NC(=O)Nc1ccc(OC(F)(F)F)cc1)c1ccccc12`, the pIC50 is 4.53. `CC(C)(C)CN1CCC2(C1)CN(c1ccccc1NC(=O)Nc1ccc(OC(F)(F)F)cc1)c1ccccc12` (stereo not drawn): the pIC50 was 4.73. Regarding `CC(C)(C)CN1CCC2(CC1)CN(c1ccccc1NC(=O)Nc1ccc(OC(F)(F)F)cc1)c1cccnc12`, the pIC50 is 4.82.

With `CC(C)(C)CN1CCC2(CC1)CN(c1ccccc1NC(=O)Nc1ccc(OC(F)(F)F)cc1)c1ccccc12`, the negative-log IC50 (pIC50) was 5.31. Take `CC(C)(C)CN1CCCC2(C1)CN(c1ccccc1NC(=O)Nc1ccc(OC(F)(F)F)cc1)c1ccccc12` (stereo not drawn): the pIC50 was under 4.40. As to `O=C(Nc1ccc(OC(F)(F)F)cc1)Nc1ccccc1N1CC2(CCN(Cc3ccccc3)CC2)c2ccccc21`, the pIC50 was 4.73. Take `CC(C)(C)CN1CCC2(CC1)CN(c1ccccc1NC(=O)Nc1ccc(OC(F)(F)F)cc1)c1cnccc12`: the pIC50 is 5.40.

The next assay can be described thus: Antagonist activity at P2Y1 receptor in platelet-enriched human plasma assessed as 2.5 uM ADP-induced platelet aggregation preincubated for 1 min followed by ADP induction measured at 5 mins by aggregometric analysis.
As to `CC1(C)CN(c2ccccc2NC(=O)Nc2ccc(OC(F)(F)F)cc2)c2ccccc2O1`, the pIC50 is under 5.00. On the same count and under the same terms, the result for `O=C(Nc1ccc(OC(F)(F)F)cc1)Nc1ccccc1N1CC2(CCCC2)c2ccccc21` reads 5.62; that for `O=C(Nc1ccc(OC(F)(F)F)cc1)Nc1ccccc1N1CC2(CC2)c2ccccc21`, under 5.00. As to `COC(=O)N1CCC2(CC1)CN(c1ccccc1NC(=O)Nc1ccc(OC(F)(F)F)cc1)c1ccccc12`, the pIC50 was 5.24. On the same count and under the same terms, next, `CC(C)CN1CCC2(CC1)CN(c1ccccc1NC(=O)Nc1ccc(OC(F)(F)F)cc1)c1ccccc12`: 5.66; `O=C(Nc1ccc(OC(F)(F)F)cc1)Nc1ccccc1N1CC2(CCN(C(=O)OCc3ccccc3)CC2)c2ccccc21`: under 5.00; `CC(C)N1CCC2(CC1)CN(c1ccccc1NC(=O)Nc1ccc(OC(F)(F)F)cc1)c1ccccc12`: 5.33.

In the case of `CC1(C)CN(c2ncccc2NC(=O)Nc2ccc(OC(F)(F)F)cc2)c2ccccc21`, the pIC50 is under 5.00.

In the case of `O=C(Nc1ccc(OC(F)(F)F)cc1)Nc1ccccc1N1CC2(CCCCC2)c2ccccc21`, the negative-log IC50 (pIC50) was 5.70. For the compound `CC(C)NC(=O)N1CCC2(CC1)CN(c1ccccc1NC(=O)Nc1ccc(OC(F)(F)F)cc1)c1ccccc12`, the pIC50 is under 5.00. Turning to `CC1(C)CCN(c2ccccc2NC(=O)Nc2ccc(OC(F)(F)F)cc2)c2ccccc21`, the pIC50 was 5.66. On the same count and under the same terms, next, `O=C(Nc1ccc(OC(F)(F)F)cc1)Nc1ccccc1N1CCOc2ccccc21`: under 5.00. In the case of `CC1(C)CN(c2ccccc2NC(=O)Nc2ccc(OC(F)(F)F)cc2)c2ccccc21`, the pIC50 is 5.07. Same read-out and setting: the result for `CC(C)(C)CN1CCC2(CC1)CN(c1ccccc1NC(=O)Nc1ccc(OC(F)(F)F)cc1)c1ccccc12` reads 6.17; that for `O=C(Nc1ccc(OC(F)(F)F)cc1)Nc1ccccc1N1CCCc2ccccc21`, under 5.00.

Turning to `CC1(C)CCN(c2ncccc2NC(=O)Nc2ccc(OC(F)(F)F)cc2)c2ccccc21`, the pIC50 is 4.95.

For the compound `CN1CCN(c2ccccc2NC(=O)Nc2ccc(OC(F)(F)F)cc2)c2ccccc21`, the pIC50 was under 5.00. Consider `CC1CCN(c2ccccc2NC(=O)Nc2ccc(OC(F)(F)F)cc2)c2ccccc21` (stereo not drawn), for which the pIC50 was under 5.00. Same read-out and setting: the result for `COCCN1CCC2(CC1)CN(c1ccccc1NC(=O)Nc1ccc(OC(F)(F)F)cc1)c1ccccc12` reads 4.60; that for `O=C(Nc1ccc(OC(F)(F)F)cc1)Nc1ccccc1N1CC2(CCN(Cc3ccccc3)CC2)c2ccccc21`, 5.48; that for `O=C(Nc1ccc(OC(F)(F)F)cc1)Nc1ccccc1N1CC2(CCC2)c2ccccc21`, 5.39.

The record behind these values is BindingDB's records for doi:10.1021/jm4013906 (Bristol-Myers Squibb, 2013).
